In PubChem BioAssay AID743355 (Broad Institute, 2014):
Active and inactive are the calls of the source.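 The calls were made as follows: active = signal drop with a fitted AC50 at or under twice the sample's highest valid dose; inconclusive = flat fit with signal down 30 to 70%, or poor fit; inactive = the rest, including signal rising.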

tested on: not listed separately; experiment: viability loss in A549 lung cells – cell-based, luminescence, dry powder, set 9, cytotoxicity control, dose response (AID 743355); settings: A549 viability, CellTiter-Glo ATP luminescence, 72 h; at 12 µM (top of the series)

Row | SMILES | normalized CellTiter-Glo signal change (more negative = more cytotoxic)
1 | N#Cc1ccc(N2CCN(C(=O)c3ccc4c(c3)OCO4)CC2)cc1 | -5.47% (inactive)

same assay, conditions: A549 viability, CellTiter-Glo ATP luminescence, 72 h; at 26 µM (top of the series)

Row | SMILES | normalized CellTiter-Glo signal change (more negative = more cytotoxic)
2 | CC(=O)c1ccc(N2CCN(C(=O)c3ccc(Cl)c(Cl)c3)CC2)cc1 | 5.05% (inactive)
3 | O=C(c1ccc2c(c1)OCO2)N1CCN(c2ccc(OC(F)(F)F)cc2)CC1 | 6.83% (inactive)
4 | COc1cc2c(cc1C(=O)N1CCN(c3ccc(C(C)=O)cc3)CC1)OCO2 | -2.21% (inactive)
5 | O=C(c1ccc2c(c1)OCO2)N1CCN(c2ccc(S(=O)(=O)C(F)F)cc2)CC1 | 17.7% (inactive)
6 | O=C(c1ccc2c(c1)OCO2)N1CCN(c2ccc(C(F)(F)F)cc2)CC1 | 1.09% (inactive)
7 | CC(=O)c1ccc(N2CCN(C(=O)c3cccc4c3OCO4)CC2)cc1 | 2.91% (inactive)
8 | CC(=O)c1ccc(N2CCN(C(=O)c3cc4c(cc3Cl)OCO4)CC2)cc1 | 2.51% (inactive)
9 | O=C(c1ccc2c(c1)OCO2)N1CCN(c2ccc(S(=O)(=O)C(F)(F)F)cc2)CC1 | 21.5% (inactive)
10 | CC(=O)c1ccc(N2CCN(C(=O)Nc3ccc4c(c3)OCO4)CC2)cc1 | -14.7% (inactive)
11 | CC(=O)c1ccc(N2CCN(C(=O)c3cc(Cl)c4c(c3)OCO4)CC2)cc1 | 6.94% (inactive)
12 | CC(=O)c1ccc(N2CC3CC2CN3C(=O)c2ccc3c(c2)OCO3)cc1 (stereo unspecified) | -9.16% (inactive)
13 | CC(=O)c1ccc(N2CCN(C(=O)c3ccc4c(c3)OCO4)CC2)cc1 | -7.97% (inactive)
14 | CC(=O)c1ccc(N2CCN(S(=O)(=O)c3ccc4c(c3)OCO4)CC2)cc1 | -10.1% (inactive)
15 | CC(=O)c1ccc(N2CCN(C(=O)c3ccc4c(c3C)OCO4)CC2)cc1 | -3.63% (inactive)
16 | CC(=O)c1ccc(N2CCN(C(=O)c3ccc4c(c3)OC(C)(C)O4)CC2)cc1 | 5.78% (inactive)
17 | CS(=O)(=O)c1ccc(N2CCN(C(=O)c3ccc4c(c3)OCO4)CC2)cc1 | -1.14% (inactive)
18 | CN(C)S(=O)(=O)c1ccc(N2CCN(C(=O)c3ccc4c(c3)OCO4)CC2)cc1 | -6.83% (inactive)
19 | CC(=O)c1ccc(N2CCCN(C(=O)c3ccc4c(c3)OCO4)CC2)cc1 | 9.8% (inactive)
20 | CC(=O)c1ccc(N2CCN(C(=O)c3ccc4snnc4c3)CC2)cc1 | -3.89% (inactive)
21 | CC(=O)c1ccc(N2CCN(C(=O)c3cc4c(cc3C)OCO4)CC2)cc1 | 1.8% (inactive)
22 | CC(=O)c1ccc(N2CCN(C(=O)c3ccc4ocnc4c3)CC2)cc1 | 4.94% (inactive)
23 | COc1ccc(C(=O)N2CCN(c3ccc(C(C)=O)cc3)CC2)cc1OC | 51.5% (inactive)
24 | CC(=O)c1ccc(N2CCN(C(=O)c3ccc4c(c3)OC(F)(F)O4)CC2)cc1 | -2.42% (inactive)
25 | CC(=O)c1ccc(N2CCN(C(=O)c3cc4c(cn3)OCO4)CC2)cc1 | -11.9% (inactive)

tested on: A549 viability, CellTiter-Glo ATP luminescence, 72 h; experiment: as above; settings: not given

Row | SMILES | AC50
26 | COc1cc(C(=O)N2CCN(c3ccc(C(C)=O)cc3)CC2)cc2c1OCO2 | > 52 µM (inactive)
